Assay results as given in patent publication US11800842B2, “Method for obtaining adventitious tetraploid bud of Blumea balsamifera” (Tropical Crops Genetic Resources Institute, Chinese Academy …, priority 2021, dated 2023).

Columns and labels:
Type in all cases: cell-based, Blumea balsamifera
[1] = tested on: B. balsamifera somatic cells; assay: Effects of different 6-BA concentrations on induction of adventitious tetraploid buds from root segments; details: for Induction rate %: MS Medium with 0.05 mg/L NAA, 120 mg/L colchicine, root segment about 6.0 cm, 60 days
Description: (§1) In the examples, effective root segment refers to uncontaminated root segment; induction rate refers to the percentage of the total number of adventitious tetraploid buds formed by induction accounting for the total number of diploid explants, and the calculation formula is: induction rate (%)=(total number of adventitious tetraploid buds/total number of diploid explants)×100%. Chimera rate (%)=(total number of adventitious buds of chimera/total number of adventitious buds)×100%.
MS Medium was used as a basal medium, which was supplemented with 0.05 mg/L NAA, 120 mg/L colchicine, 30 g/L sucrose, 6 g/L agar, and 6-BA of different concentrations (0, 1.0, 1.5, and 2.0 mg/L, respectively, 0 mg/L as the control group). Culture media were prepared individually, segmented root tissues (with a root segment length of about 6.0 cm) were inoculated, and contaminated root explants were excluded after 60 days. The number of tetraploid buds was counted, and the doubling efficiency was calculated.

[2] = tested on: B. balsamifera somatic cells; assay: Effects of different colchicine concentrations on induction of adventitious tetraploid buds from root segments; details: for Induction rate %: MS Medium with 1.0 mg/L 6-BA, 0.05 mg/L NAA, root segment about 4.0 cm, 60 days
Description: as §1
MS Medium was used as a basal medium, which was supplemented with 1.0 mg/L 6-BA, 0.05 mg/L NAA, 30 g/L sucrose, 6 g/L agar, and colchicine of different concentrations (50, 70, 90, 120, and 150 mg/L, respectively). Culture media were prepared individually, and segmented root tissues (with a root segment length of about 4.0 cm) were inoculated. Chromosome ploidy identification was conducted on the formed adventitious buds after 60 days. The number of adventitious tetraploid buds was counted, and the doubling induction rate was calculated.

[3] = tested on: root explants of diploid B. balsamifera; assay: Effects of different NAA concentrations on induction of adventitious tetraploid buds from root segments; details: for Induction rate %: MS Medium with 1.0 mg/L 6-BA, 120 mg/L colchicine, root segment about 4.0 cm, 60 days
Description: as §1
MS Medium was used as a basal medium, which was supplemented with 1.0 mg/L 6-BA, 120 mg/L colchicine, 30 g/L sucrose, 6 g/L agar, and NAA of different concentrations (0, 0.025, 0.05, 0.075, and 0.1 mg/L, respectively, 0 mg/L as the control group). Culture media were prepared individually, and segmented root tissues (with a root segment length of about 4.0 cm) were inoculated. Chromosome ploidy identification was conducted on adventitious buds after 60 days. The number of adventitious tetraploid buds was counted, and the induction rate was calculated.

SMILES: c1ccc(CNc2ncnc3nc[nH]c23)cc1 [6-BA, 6-benzylaminopurine]
- effect of inducing the doubling of the somatic cells of the root explants and dedifferentiating into adventitious tetraploid buds ([1]; 6-BA 1.0 mg/L, compared with 0, 1.5 and 2.0 mg/L): optimal
- Induction rate % ([1]; 6-BA 1.0 mg/L): 7.75%
- Induction rate % ([1]; 6-BA 1.5 mg/L): 5.5%
- Induction rate % ([1]; 6-BA 2.0 mg/L): 4.17%

SMILES: COc1cc2c(c(OC)c1OC)-c1ccc(OC)c(=O)cc1[C@@H](NC(C)=O)CC2 [Colchicine, colchicine]
- Induction rate % ([2]; colchicine 50 mg/L): 0%
- Induction rate % ([2]; colchicine 70 mg/L): 0%
- Induction rate % ([2]; colchicine 90 mg/L): 2.08%
- effect of inducing root explants of diploid B. balsamifera to form adventitious tetraploid buds ([2]; colchicine 120 mg/L, compared with 50, 70, 90 and 150 mg/L): optimal
- Induction rate % ([2]; colchicine 120 mg/L): 10.42%
- Induction rate % ([2]; colchicine 150 mg/L): 4.17%

SMILES: O=C(O)Cc1cccc2ccccc12 [NAA, 1-naphthaleneacetic acid]
- Induction rate % ([3]; NAA 0.025 mg/L): 2.08%
- doubling effect ([3]; NAA 0.05 mg/L, compared with 0, 0.025, 0.075 and 0.1 mg/L): optimal
- Induction rate % ([3]; NAA 0.05 mg/L): 10.42%
- Induction rate % ([3]; NAA 0.075 mg/L): 4.17%
- Induction rate % ([3]; NAA 0.1 mg/L): 3.13%
